# Experimental data reported in patent US10076519B2 (CYTOKINETICS, INC., priority 2010, dated 2018).
# Test system: rabbit skeletal myofibrils (fast skeletal myofibrils)
# Assay: Activation of fast skeletal myofibrils (PUMA assay, PK/LDH-coupled ATPase at pCa25)
# Type: biochemical
# Conditions: AC1.4 determined according to the procedure of Example 39; reported as class symbols
# Summary of the method: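 Detergent-washed rabbit psoas myofibrils (~90% fast fibres, calcium-regulated) assayed at calcium giving 25% of maximal ATPase rate (pCa25). ADP turnover coupled via pyruvate kinase/lactate dehydrogenase to NADH oxidation, read at 340 nm. Buffer 12 mM PIPES, 2 mM MgCl2, 1 mM DTT, pH 6.8; AC1.4 values derived.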
row,Mean AC1.4,Compound
1,B (B=1-10 uM),CC(C)(CNc1ccc(-c2cc(F)cc(C(N)=O)c2)nn1)c1ccc(F)cc1 [3-fluoro-5-(6-{[2-(4-fluorophenyl)-2-methylpropyl]amino}pyridazin-3-yl)benzamide]
2,D (D=>20 uM),NC(=O)c1cccc(-c2ccc(NCCc3ccccn3)nn2)c1 [3-{6-[(2-(2-pyridyl)ethyl)amino]pyridazin-3-yl}benzamide]
3,D (D=>20 uM),NC(=O)c1cccc(-c2ccc(NCCc3cccnc3)nn2)c1 [3-{6-[(2-(3-pyridyl)ethyl)amino]pyridazin-3-yl}benzamide]
4,D (D=>20 uM),NC(=O)c1cccc(-c2ccc(NCCc3ccncc3)nn2)c1 [3-{6-[(2-(4-pyridyl)ethyl)amino]pyridazin-3-yl}benzamide]
5,D (D=>20 uM),CC(C)(CNc1ccc(-c2cccc(C(N)=O)c2)nn1)c1ncccn1 [3-{6-[(2-methyl-2-pyrimidin-2-ylpropyl)amino]pyridazin-3-yl}benzamide]
6,D (D=>20 uM),NC(=O)c1cccc(-c2ccc(NCCc3ccccc3)nn2)c1 [3-{6-[(2-phenylethyl)amino]pyridazin-3-yl}benzamide]
7,B (B=1-10 uM),CC(CNc1ccc(-c2cccc(C(N)=O)c2)nn1)c1ccccc1 (centres unmarked) [3-{6-[(2-phenylpropyl)amino]pyridazin-3-yl}benzamide]
8,D (D=>20 uM),CC(CNc1ccc(-c2cccc(C(N)=O)c2)nn1)N1CCCCC1 (centres unmarked) [3-{6-[(2-piperidylpropyl)amino]pyridazin-3-yl}benzamide]
9,D (D=>20 uM),NC(=O)c1cccc(-c2ccc(NCCc3cnccn3)nn2)c1 [3-{6-[(2-pyrazin-2-ylethyl)amino]pyridazin-3-yl}benzamide]
10,D (D=>20 uM),"CC(C)(C)CCNc1ccc(-c2cccc(C(N)=O)c2)nn1 [3-{6-[(3,3-dimethylbutyl)amino]pyridazin-3-yl}benzamide]"

# Same assay, conditions: median AC1.4 class, procedure of Example 39
row,Compound,Mean AC1.4
1,"NC(=O)c1nc(-c2ccc(NCC3(c4ncccc4F)CCC3)nn2)no1 [3-[6-({[(3-fluoro-2-pyridyl)cyclobutyl]methyl}ami-no)pyridazin-3-yl]-1,2,4-oxadiazole-5-carboxamide]",B (B=1-10 uM)
2,O=c1cc(-c2ccc(NCC3(c4ncccc4F)CCC3)nn2)[nH][nH]1 [3-[6-({[(3-fluoro-2-pyridyl)cyclobutyl]methyl}ami-no)pyridazin-3-yl]-3-pyrazolin-5-one],B (B=1-10 uM)
3,"O=c1[nH]nc(-c2cnc(-c3ccc(NCC4(c5ncccc5F)CCC4)nn3)s2)[nH]1 [3-{2-[6-({[(3-fluoro-2-pyridyl)cyclobutyl]methyl}ami-no)pyridazin-3-yl]-1,3-thiazol-5-yl}-1,2,4-triazolin-5-one]",A (A=<1 uM)
4,"O=c1[nH]nc(-c2ccc(F)c(-c3ccc(NCC4(c5ncccc5F)CCC4)nn3)c2)[nH]1 [3-{4-fluoro-3-[6-({[(3-fluoro(2-pyridyl))cyclobutyl]methyl}ami-no)pyridazin-3-yl]phenyl}-1,2,4-triazolin-5-one]",A (A=<1 uM)
5,"NC(=O)c1cccc(-c2ccc(NC3(c4nccs4)CCC3)nn2)c1 [3-{6-[(1,3-thiazol-2-ylcyclobutyl)amino]pyridazin-3-yl}benzamide]",D (D=>20 uM)
6,CC(C)(Nc1ccc(-c2cccc(C(N)=O)c2)nn1)c1ccccn1 [3-{6-[(1-methyl-1-(2-pyridyl)ethyl)amino]pyridazin-3-yl}benzamide],D (D=>20 uM)
7,CC(C)(Nc1ccc(-c2cccc(C#N)c2)nn1)c1ccccc1 [3-{6-[(1-methyl-1-phenylethyl)amino]pyridazin-3-yl}benzenecarbonitrile],B (B=1-10 uM)
8,NC(=O)c1cccc(-c2ccc(NC3(c4ccccn4)CCC3)nn2)c1 [3-{6-[(2-pyridylcyclobutyl)amino]pyridazin-3-yl}benzamide],D (D=>20 uM)

# More lines, now with the values ahead:
row,Mean AC1.4,Compound
1,C (C=10-20 uM),"O=c1[nH]nc(-c2ccc(NCC3(c4ncccc4F)CCC3)nn2)[nH]1 [3-[6-({[(3-fluoro-2-pyridyl)cyclobutyl]methyl}ami-no)pyridazin-3-yl]-1,2,4-triazolin-5-one]"
2,B (B=1-10 uM),"O=c1[nH]c(-c2cnc(-c3ccc(NCC4(c5ncccc5F)CCC4)nn3)s2)no1 [3-{2-[6-({[(3-fluoro-2-pyridyl)cyclobutyl]methyl}ami-no)pyridazin-3-yl]-1,3-thiazol-5-yl}-1,2,4-oxadiazolin-5-one]"
3,B (B=1-10 uM),"O=c1[nH]nc(-c2cccc(-c3ccc(NCC4(c5ncccc5F)CCC4)nn3)c2)[nH]1 [3-{3-[6-({[(3-fluoro-2-pyridyl)cyclobutyl]methyl}ami-no)pyridazin-3-yl]phenyl}-1,2,4-triazolin-5-one]"
4,A (A=<1 uM),"O=c1[nH]nc(-c2ccc(-c3ccc(NCC4(c5ncccc5F)CCC4)nn3)s2)[nH]1 [3-{5-[6-({[(3-fluoro-2-pyridyl)cyclobutyl]methyl}ami-no)pyridazin-3-yl]-2-thienyl}-1,2,4-triazolin-5-one]"
5,B (B=1-10 uM),CC(C)(Nc1ccc(-c2cccc(C(N)=O)c2)nn1)c1ccccc1 [3-{6-[(1-methyl-1-phenylethyl)amino]pyridazin-3-yl}benzamide]
6,D (D=>20 uM),"NC(=O)c1cccc(-c2ccc(NCC(F)(F)c3ccccn3)nn2)c1 [3-{6-[(2,2-difluoro-2-(2-pyridyl)ethyl)amino]pyridazin-3-yl}benzamide]"

# Same assay, conditions: median AC1.4 reported as class; procedure of Example 39
row,Compound,Mean AC1.4
1,"CC1(C)C(=O)NN=C1c1ccc(NCC2(c3ncccc3F)CCC2)nn1 [3-[6-({[(3-fluoro(2-pyridyl))cyclobutyl]methyl}ami-no)pyridazin-3-yl]-4,4-dimethyl-2-pyrazolin-5-one]",D (D=>20 uM)
2,O=C(O)c1ccc(O)c(-c2ccc(NCC3(c4ncccc4F)CCC3)nn2)c1 [3-[6-({[(3-fluoro(2-pyridyl))cyclobutyl]methyl}ami-no)pyridazin-3-yl]-4-hydroxybenzoic acid],C (C=10-20 uM)
3,Cc1c(-c2ccc(NCC3(c4ncccc4F)CCC3)nn2)[nH][nH]c1=O [3-[6-({[(3-fluoro(2-pyridyl))cyclobutyl]methyl}ami-no)pyridazin-3-yl]-4-methyl-3-pyrazolin-5-one],D (D=>20 uM)
4,"O=C(O)CCc1cnc(-c2ccc(NCC3(c4ncccc4F)CCC3)nn2)s1 [3-{2-[6-({[(3-fluoro-2-pyridyl)cyclobutyl]methyl}ami-no)pyridazin-3-yl]-1,3-thiazol-5-yl}propanoic acid]",B (B=1-10 uM)
5,NC(=O)c1ccc(O)c(-c2ccc(N3CC4(c5ncccc5F)CC3C4)nn2)c1 [3-{6-[4-(3-fluoro(2-pyridyl))-2-azabicyclo[2.1.1]hex-2-yl]pyridazin-3-yl}-4-hydroxybenzamide],D (D=>20 uM)

# Continued, values first:
row,Mean AC1.4,Compound
1,B (B=1-10 uM),NC(=O)c1ccc(O)c(-c2ccc(NCC3(c4ncccc4F)CCC3)nn2)c1 [3-[6-({[(3-fluoro(2-pyridyl))cyclobutyl]methyl}ami-no)pyridazin-3-yl]-4-hydroxybenzamide]
2,D (D=>20 uM),Cc1cc(-c2cccc(C(N)=O)c2)nnc1NCC1(c2ncccc2F)CCC1 [3-[6-({[(3-fluoro(2-pyridyl))cyclobutyl]methyl}amino)-5-methylpyridazin-3-yl]benzamide]
3,B (B=1-10 uM),"NC(=O)CCc1cnc(-c2ccc(NCC3(c4ncccc4F)CCC3)nn2)s1 [3-{2-[6-({[(3-fluoro-2-pyridyl)cyclobutyl]methyl}ami-no)pyridazin-3-yl]-1,3-thiazol-5-yl}propanamide]"
